# Reference: patent publication US20110230433A1, “COMPOSITIONS AND METHODS FOR TREATMENT OF CANCER” (UNIVERSITY OF WASHINGTON, priority 2010, published 2011)
# Legend:
# HCT116 = test: Viability after 48 hr culture with analog, crystal violet staining; assay type: cell-based, human; settings: HCT116 (mismatch repair deficient)
# Experimental: (§1) The concentration of each analog used in the serial transfer experiments can be 50% less than the highest dose at which there is no reduction in viability. Analogs that fail to be toxic can be used at 100 μM.
# (§2) In Table 2, mismatch repair proficient and deficient cell lines were assayed for viability after growing for 48 hr with the indicated analogs in nM to mM concentrations.
# SW480 = test: as above; assay type: cell-based, human; settings: SW480 (mismatch repair proficient)
# Experimental: as §1, §2
# E. coli = E. coli lacking repair of 8-OH-dG; cited from earlier work
# DNA = settings: cited from earlier work
# dG = settings: cited from earlier work
# DNA polymerases = settings: copying past site specific residues by DNA polymerases in vitro; cited from earlier work
# HIV = HIV in tissue culture; cited from earlier work
# [1] = system: human cells deficient in O^6-methyl transferase; settings: compared to correct base-pairing with cytidine; cited from earlier work
SMILES,Highest dose without decreased viability (HCT116),Highest dose without decreased viability (SW480),other results
"Nc1ncc2[nH]cnc2n1 [2′-aminopurine, 2-Aminopurine]",0.00033 mM,0.00033 mM,
"Nc1ncc2ncn([C@H]3C[C@H](O)[C@@H](CO)O3)c2n1 [2′-deoxyaminopurine, 2-Amino-9-(β-D-2′-deoxyribfuranosyl)purine]",>3.3 mM,>3.3 mM,
OC[C@H]1O[C@@H](n2cnc3c(O)ncnc32)C[C@@H]1O [2′-deoxyinosine],>3.3 mM,>3.3 mM,
Nc1nc(=O)n([C@H]2C[C@H](O)[C@@H](CO)O2)cc1O [5-hydroxy-2′-deoxycytidine],0.03 mM,0.3 mM,
"Nc1nc2c(nc(O)n2[C@H]2C[C@H](O)[C@@H](CO)O2)c(=O)[nH]1 [8-OH-dG, 8-hydroxy deoxyguanosine]",,,increase in mutagenesis (E. coli): 1000 fold
"CCN(N=O)C(N)=O [ENU, ethylnitrosourea, reference compound]",1.1 mg/mL,0.6 mg/mL,
"OC[C@H]1O[C@@H](n2cnc3c2ncn2ccnc32)C[C@@H]1O [Etheno-dA, 1,N6-etheno dA]",,,frequency of non-complementary base-pairs (DNA): approximately 10%
"O=c1n([C@H]2C[C@H](O)[C@@H](CO)O2)ccc2nccn12 [Etheno-dC, N^3,4-etheno dC]",,,frequency of non-complementary base-pairs (DNA): approximately 10%
"O=c1[nH]c2nccn2c2c1ncn2C1C[C@H](O)[C@@H](CO)O1 (some centres unmarked) [Etheno-dG, N^2,3-etheno dG]",,,frequency of non-complementary base-pairs (DNA): approximately 10%
"NC1=NC(=O)N([C@H]2C[C@H](O)[C@@H](CO)O2)CN1 [KP-1212, reference compound]",3.3 mM,3.3 mM,
CCOc1nc(=O)n([C@H]2C[C@H](O)[C@@H](CO)O2)cc1C [O^4-ethyl-2′-deoxythymidine],0.33 mM,>3.3 mM,frequency of mispairing with dG (dG): approximately 25%
COc1nc(=O)n([C@H]2C[C@H](O)[C@@H](CO)O2)cc1C [O^4-methyl-2′-deoxythymidine],>3.3 mM,>3.3 mM,frequency of mispairing with dG (dG): approximately 25%; increase in mis-incorporation (DNA polymerases): 20%; induction of lethal mutagenesis (HIV): induce lethal mutagenesis of HIV
CCOc1nc(N)nc2c1ncn2[C@H]1C[C@H](O)[C@@H](CO)O1 [O^6-ethyl dG],,,frequency of base-pairing with thymidine [1]: 11%
COc1nc(N)nc2c1ncn2[C@H]1C[C@H](O)[C@@H](CO)O1 [O^6-methyl dG],,,frequency of base-pairing with thymidine [1]: 19%
